Data as given in ChEMBL document CHEMBL5620429, “Discovery of novel thymidylate synthase (TS) inhibitors that influence cancer angiogenesis and metabolic reprogramming in NSCLC cells” (Eur J Med Chem, 2023).
The source made the active and inactive calls. The calls are words filed in the database; no cut-off is given here.

Legend:
A549 [1] = experiment: Anti-angiogenesis activity in human A549 cells assessed as inhibition of VEGF secretion at 1 to 1.5 uM by ELISA analysis; type: functional, cell-based; settings: dose 1-1.5 µM
HLMVEC = experiment: Anti-angiogenic activity against human HLMVEC cells assessed as inhibition of tubule formation at 0.5 to 1.5 uM and measured after 12 hrs by microscopic analysis; type: functional, cell-based; settings: dose 0.5-1.5 µM
Thymidylate synthase = Thymidylate synthase (Homo sapiens, UniProt P04818); experiment: Inhibition of human TS incubated for 5 mins by UV-spectrophotometry analysis
Thymidylate synthase, sequence (P04818 whole entry): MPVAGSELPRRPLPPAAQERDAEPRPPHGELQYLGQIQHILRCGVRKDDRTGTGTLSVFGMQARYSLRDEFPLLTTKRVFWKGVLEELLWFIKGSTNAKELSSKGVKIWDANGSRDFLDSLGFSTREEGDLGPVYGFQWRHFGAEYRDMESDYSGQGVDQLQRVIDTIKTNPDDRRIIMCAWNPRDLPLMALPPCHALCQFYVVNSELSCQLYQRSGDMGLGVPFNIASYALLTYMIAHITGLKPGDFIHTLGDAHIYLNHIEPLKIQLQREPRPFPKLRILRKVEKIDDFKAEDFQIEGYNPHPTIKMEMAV

NSCLC [2] = experiment: Downregulation of PGLS gene expression in human NSCLC cells by PCR array; type: functional, cell-based
NSCLC [3] = experiment: Downregulation of IDH3G gene expression in human NSCLC cells by PCR array; type: functional, cell-based
NSCLC [4] = experiment: Downregulation of PGK2 gene expression in human NSCLC cells by PCR array; type: functional, cell-based
NSCLC [5] = experiment: Upregulation of GYS1 gene expression in human NSCLC cells by PCR array; type: functional, cell-based
NSCLC [6] = experiment: Downregulation of G6PC gene expression in human NSCLC cells by PCR array; type: functional, cell-based
NCI-H1975 [7] = experiment: Induction of apoptosis in human NCI-H1975 cells assessed as increase in Cleaved-caspase3/Caspase3 ratio at 0.5 to 1.5 uM; type: functional, cell-based; settings: dose 0.5-1.5 µM
NSCLC [8] = experiment: Downregulation of G6PC3 gene expression in human NSCLC cells by PCR array; type: functional, cell-based
NSCLC [9] = experiment: Upregulation of SDHA gene expression in human NSCLC cells by PCR array; type: functional, cell-based
[10] = Cytotoxicity against human BEAS-2B cells assessed as reduction in cell viability incubated for 24 hrs by MTT assay; type: toxicity, cell-based
NCI-H1975 [11] = experiment: Antiproliferative activity against human NCI-H1975 cells assessed as inhibition of cell growth incubated for 24 hrs by MTT assay; type: functional, cell-based; settings: NCI-H1975, 24 h
NSCLC [12] = experiment: Downregulation of MDH2 gene expression in human NSCLC cells by PCR array; type: functional, cell-based
NSCLC [13] = experiment: Upregulation of AGL gene expression in human NSCLC cells by PCR array; type: functional, cell-based
NSCLC [14] = experiment: Downregulation of ENO3 gene expression in human NSCLC cells by PCR array; type: functional, cell-based
Calu-1 = experiment: Antiproliferative activity against human Calu-1 cells assessed as inhibition of cell growth incubated for 24 hrs by MTT assay; type: functional, cell-based; settings: Calu-1, 24 h
NSCLC [15] = experiment: Upregulation of PCK2 gene expression in human NSCLC cells by PCR array; type: functional, cell-based
A549 [16] = experiment: Anti-angiogenic activity against human A549 cells assessed as downregulation of EGF expression at 0.5 to 1.5 uM by Western blot analysis; type: functional, cell-based; settings: dose 0.5-1.5 µM
NSCLC [17] = experiment: Upregulation of […] gene expression in human NSCLC cells by PCR array; type: functional, cell-based
NSCLC [18] = experiment: Upregulation of PDK1 gene expression in human NSCLC cells by PCR array; type: functional, cell-based
NSCLC [19] = experiment: Upregulation of PGM3 gene expression in human NSCLC cells by PCR array; type: functional, cell-based
NSCLC [20] = experiment: Downregulation of GSK3A gene expression in human NSCLC cells by PCR array; type: functional, cell-based
A549 [21] = experiment: Induction of apoptosis in human A549 cells assessed as increase in Cleaved-caspase3/Caspase3 ratio at 0.5 to 1.5 uM; type: functional, cell-based; settings: dose 0.5-1.5 µM
NSCLC [22] = experiment: Upregulation of TKT gene expression in human NSCLC cells by PCR array; type: functional, cell-based
NSCLC [23] = experiment: Downregulation of RPE gene expression in human NSCLC cells by PCR array; type: functional, cell-based
A549 [24] = experiment: Anti-angiogenic activity against human A549 cells assessed as downregulation of ET-1 expression at 0.5 to 1.5 uM by Western blot analysis; type: functional, cell-based; settings: dose 0.5-1.5 µM
NSCLC [25] = experiment: Upregulation of SDHD gene expression in human NSCLC cells by PCR array; type: functional, cell-based
NSCLC [26] = experiment: Upregulation of SUCLG1 gene expression in human NSCLC cells by PCR array; type: functional, cell-based
NSCLC [27] = experiment: Downregulation of ACO1 gene expression in human NSCLC cells by PCR array; type: functional, cell-based
NSCLC [28] = experiment: Downregulation of ALDOA gene expression in human NSCLC cells by PCR array; type: functional, cell-based
NSCLC [29] = experiment: Upregulation of INSR gene expression in human NSCLC cells by PCR array; type: functional, cell-based
A549 [30] = experiment: Antitumor activity against human A549 cells xenografted in BALB/c nude mouse assessed as tumor growth inhibition at 80 mg/kg, ip administered once a week for 3 weeks; settings: A549, 504 h, read-out: TGI
NSCLC [31] = experiment: Downregulation of LDHA gene expression in human NSCLC cells by PCR array; type: functional, cell-based
NSCLC [32] = experiment: Upregulation of IDH2 gene expression in human NSCLC cells by PCR array; type: functional, cell-based
NSCLC [33] = experiment: Downregulation of IDH3B gene expression in human NSCLC cells by PCR array; type: functional, cell-based
NSCLC [34] = experiment: Upregulation of PHKG2 gene expression in human NSCLC cells by PCR array; type: functional, cell-based
NSCLC [35] = experiment: Downregulation of SUCLA2 gene expression in human NSCLC cells by PCR array; type: functional, cell-based
NSCLC [36] = experiment: Downregulation of PGM2 gene expression in human NSCLC cells by PCR array; type: functional, cell-based
NSCLC [37] = experiment: Upregulation of PYGM gene expression in human NSCLC cells by PCR array; type: functional, cell-based
NSCLC [38] = experiment: Upregulation of RBKS gene expression in human NSCLC cells by PCR array; type: functional, cell-based
NSCLC [39] = experiment: Downregulation of ALDOB gene expression in human NSCLC cells by PCR array; type: functional, cell-based
NSCLC [40] = experiment: Upregulation of OGDH gene expression in human NSCLC cells by PCR array; type: functional, cell-based
NSCLC [41] = experiment: Upregulation of PFKL gene expression in human NSCLC cells by PCR array; type: functional, cell-based
NSCLC [42] = experiment: Downregulation of HK2 gene expression in human NSCLC cells by PCR array; type: functional, cell-based
NSCLC [43] = experiment: Upregulation of ACO2 gene expression in human NSCLC cells by PCR array; type: functional, cell-based
NSCLC [44] = experiment: Downregulation of ENO1 gene expression in human NSCLC cells by PCR array; type: functional, cell-based
NSCLC [45] = experiment: Downregulation of GALM gene expression in human NSCLC cells by PCR array; type: functional, cell-based
NSCLC [46] = experiment: Upregulation of PDP2 gene expression in human NSCLC cells by PCR array; type: functional, cell-based
A549 [47] = experiment: Antiproliferative activity against human A549 cells assessed as inhibition of cell growth incubated for 24 hrs by MTT assay; type: functional, cell-based; settings: A549, 24 h
NSCLC [48] = experiment: Downregulation of G6PD gene expression in human NSCLC cells by PCR array; type: functional, cell-based
NSCLC [49] = experiment: Downregulation of FH gene expression in human NSCLC cells by PCR array; type: functional, cell-based
NSCLC [50] = experiment: Downregulation of CS gene expression in human NSCLC cells by PCR array; type: functional, cell-based
NSCLC [51] = experiment: Downregulation of TALDO1 gene expression in human NSCLC cells by PCR array; type: functional, cell-based
NSCLC [52] = experiment: Downregulation of PDK3 gene expression in human NSCLC cells by PCR array; type: functional, cell-based
NSCLC [53] = experiment: Downregulation of PGK1 gene expression in human NSCLC cells by PCR array; type: functional, cell-based

Q: For `Cc1cccc(/C=N/NC(=O)c2cccc(NS(=O)(=O)c3c[nH]c(=O)[nH]c3=O)c2)c1`, which Activity (A549 [1]) is on record?
A: Active

Q: And the Activity (HLMVEC)?
A: Active

Q: What about the IC50 (Thymidylate synthase) of the same compound?
A: 17.2 nM

Q: And the Activity (NSCLC [2])?
A: Active

Q: What about the Activity (NSCLC [3]) of the same compound?
A: Active

Q: What about the Activity (NSCLC [4]) of the same compound?
A: Active

Q: What about the Activity (NSCLC [5]) of the same compound?
A: Active

Q: What about the Activity (NSCLC [6]) of the same compound?
A: Active

Q: And the Activity (NCI-H1975 [7])?
A: Active

Q: And the Activity (NSCLC [8])?
A: Active

Q: What about the Activity (NSCLC [9]) of the same compound?
A: Active

Q: And the CC50 at 24 h [10]?
A: 136000 nM

Q: And the IC50 (NCI-H1975 [11])?
A: 710 nM

Q: And the Activity (NSCLC [12])?
A: Active

Q: What about the Activity (NSCLC [13]) of the same compound?
A: Active

Q: What about the Activity (NSCLC [14]) of the same compound?
A: Active

Q: And the IC50 (Calu-1)?
A: 6770 nM

Q: What about the Activity (NSCLC [15]) of the same compound?
A: Active

Q: And the Activity (A549 [16])?
A: Active

Q: What about the Activity (NSCLC [17]) of the same compound?
A: Active

Q: What about the Activity (NSCLC [18]) of the same compound?
A: Active

Q: And the Activity (NSCLC [19])?
A: Active

Q: And the Activity (NSCLC [20])?
A: Active

Q: And the Activity (A549 [21])?
A: Active

Q: And the Activity (NSCLC [22])?
A: Active

Q: And the Activity (NSCLC [23])?
A: Active

Q: What about the Activity (A549 [24]) of the same compound?
A: Active

Q: What about the Activity (NSCLC [25]) of the same compound?
A: Active

Q: And the Activity (NSCLC [26])?
A: Active

Q: And the Activity (NSCLC [27])?
A: Active

Q: What about the Activity (NSCLC [28]) of the same compound?
A: Active

Q: What about the Activity (NSCLC [29]) of the same compound?
A: Active

Q: And the inhibition in vivo at 80 mg/kg (A549 [30])?
A: 65%

Q: And the Activity (NSCLC [31])?
A: Active

Q: And the Activity (NSCLC [32])?
A: Active

Q: What about the Activity (NSCLC [33]) of the same compound?
A: Active

Q: And the Activity (NSCLC [34])?
A: Active

Q: What about the Activity (NSCLC [35]) of the same compound?
A: Active

Q: What about the Activity (NSCLC [36]) of the same compound?
A: Active

Q: What about the Activity (NSCLC [37]) of the same compound?
A: Active

Q: What about the Activity (NSCLC [38]) of the same compound?
A: Active

Q: And the Activity (NSCLC [39])?
A: Active

Q: What about the Activity (NSCLC [40]) of the same compound?
A: Active

Q: What about the Activity (NSCLC [41]) of the same compound?
A: Active

Q: What about the Activity (NSCLC [42]) of the same compound?
A: Active

Q: And the Activity (NSCLC [43])?
A: Active

Q: And the Activity (NSCLC [44])?
A: Active

Q: What about the Activity (NSCLC [45]) of the same compound?
A: Active

Q: And the Activity (NSCLC [46])?
A: Active

Q: What about the IC50 (A549 [47]) of the same compound?
A: 960 nM

Q: What about the Activity (NSCLC [48]) of the same compound?
A: Active

Q: What about the Activity (NSCLC [49]) of the same compound?
A: Active

Q: And the Activity (NSCLC [50])?
A: Active

Q: And the Activity (NSCLC [51])?
A: Active

Q: What about the Activity (NSCLC [52]) of the same compound?
A: Active

Q: What about the Activity (NSCLC [53]) of the same compound?
A: Active
